Measured values reported in US20130324533A1, “METHOD OF DETECTING RESISTANCE TO CANCER THERAPY” (NATIONAL UNIVERSITY OF SINGAPORE, priority 2010, published 2013).
Like-named read-outs stand apart in the source and are kept apart here.

Columns and labels:
HCC2279 cells [1] = assay: Western blot of apoptotic signaling in NSCLC cells (PARP, caspase 3 cleavage); type: cell-based, human; conditions: 0.5 μM gefitinib, […] ABT-737, 24 h, FIG. 25E
Procedure: FIG. 25E. Western blot showing levels of phospho-EGFR (p-EGFR), PAR P, and caspase 3 cleavage in cells treated for 24 h with 0.5 μM gefitinib, 2.5 μM ABT-737, or both.
Gefitinib and ABT-737 were resuspended in DMSO and kept at −20° C.
Western blotting was performed using antibodies against human BIM, CASPASE 3, cleaved CASPASE 3, PARP, phospho-EGFR (Y1068) (all from Cell Signaling Technology), and β-actin (Sigma).

[2] = tested on: K562-BIM^intron+/− and K562-BIM^intron−/− cells; assay: Western blot of genome-edited K562 clones (BIMEL, cleaved caspase 3, PARP); type: cell-based, human; conditions: polymorphism-containing K562 cells; FIG. 16H
Procedure: Western blots were probed with antibody to BIMEL, cleaved caspase 3, PAR P, CrkL, and β-actin. […] Detection was performed with HRP-conjugated secondary antibodies that are specific to rabbit (Sigma) or mouse IgG (Santa Cruz). The membrane was visualized using the Western Lightning chemiluminescence reagent (PerkinElmer). […] In a 6-well plate, 1×10^6 cells were seeded into each well at a density of 2×10^5 cells/ml. After incubation with the appropriate drug for 48 hours, the cells were harvested for western analysis (FIG. 16).

HCC2279 cells [3] = assay: Trypan blue viability assay in NSCLC cells; type: cell-based, human
Procedure: FIG. 25F. Cell viability of PC9 and HCC2279 treated for 48 h with 0.5 μM gefitinib, 2.5 μM ABT-737, or both. Cell viability was determined by trypan blue exclusion, and plotted as a percentage of the no-drug control. (mean+/−standard error of the mean, *p=0.00004 with respect to gefitinib- and ABT-737-treated PC9 cells).
PC9 or HCC2279 cells were seeded in a 24-well plate at 5×10^5 or […] cells per wells in triplicate, and treated with DMSO (no drug), 0.5 μM gefitinib, ABT-737 or combination of gefitinib and ABT-737. Trypan blue staining was performed to assess the number of viable cells 48 hours post treatment.

CML patients = conditions: cited from earlier work
KCL22 cells [4] = assay: Growth curve of CML cell lines cultured with imatinib (FIG. 5F); conditions: KCL22 cells with deletion, 1 μM imatinib
Description: CML lines were obtained from ATCC (MEG-01 and KU812), JCRB (NCO2) and DSMZ (KCL22, K562, KYO1, JK1, BV173 and NALM1).

KCL22 cells [5] = conditions: FIG. 15H and Table H13
Procedure: Apoptosis was measured using the Annexin V-FITC/7-AAD kit (Beckman Coulter) according to the manufacturer's instructions. Briefly, treated and untreated cells were Annexin V-FITC- and 7-AAD-stained in 1× binding buffer for 15 min at room temperature and then analyzed by flow cytometry.

CN(C)CC[C@H](CSc1ccccc1)Nc1ccc(S(=O)(=O)NC(=O)c2ccc(N3CCN(Cc4ccccc4-c4ccc(Cl)cc4)CC3)cc2)cc1[N+](=O)[O-] [ABT-737]
TKI-induced apoptotic signaling on addition of ABT-737 (HCC2279 cells [1]): enhanced
ability of imatinib to activate apoptosis on addition of ABT-737 [2]: enhanced
TKI-induced cell death on addition of ABT-737 (HCC2279 cells [3]; HCC2279, 0.5 μM gefitinib, […] ABT-737, 48 h, FIG. 25F): enhanced

COc1cc2ncnc(Nc3ccc(F)c(Cl)c3)c2cc1OCCCN1CCOCC1 [gefitinib]
sensitivity of HCC2279 to gefitinib (HCC2279 cells [3]; HCC2279, NSCLC cell line carrying the BIM deletion polymorphism, FIG. 25): intrinsically resistant

Cc1ccc(NC(=O)c2ccc(CN3CCN(C)CC3)cc2)cc1Nc1nccc(-c2cccnc2)n1 [imatinib]
rate of incomplete cytogenetic responses (CML patients; East-Asian countries): ~50%
rate of incomplete cytogenetic responses (CML patients; Europe and North America): 26%
sensitivity of KCL22 cells (growth curve) (KCL22 cells [4]): resistant
sensitivity of KCL22 cells to imatinib (KCL22 cells [5]): resistant
